Laboratory results as given in PubChem BioAssay AID330 (DTP/NCI, 2004).
Values joined by “and” are separate entries in the source; they are usually repeats but may differ in a detail not shown here. Equal values may be shown once. Toxic doses and inconclusive results are not listed. The calls were made as follows: active = survival T/C of 150% or more; inactive = T/C below 125% in these data.

Test system: P388 leukemia ip, CD2F1 mice, survival T/C
Experiment: NCI In Vivo Anticancer Drug Screen. Data for tumor model P388 Leukemia (intraperitoneal) in CD2F1 (CDF1) mice
Conditions: endpoint: median survival time, higher = longer survival
Procedure, shortened: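 Mice carrying the transplanted tumor received test compound or vehicle. Survival was recorded in each group, and the value is the treated-group measurement divided by that of the vehicle-treated control group.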

[1] = dose: 100.0 mg/kg/injection, schedule: Q04DX003 (ip), vehicle: saline with Tween-80
[2] = dose: 200.0 mg/kg/injection, schedule: Q04DX003 (ip), vehicle: saline with Tween-80
[3] = dose: 400.0 mg/kg/injection, schedule: Q04DX003 (ip), vehicle: saline with Tween-80
[4] = dose: 60.0 mg/kg/injection, schedule: Q01DX005 (ip), vehicle: saline with Tween-80
[5] = dose: 120.0 mg/kg/injection, schedule: Q01DX005 (ip), vehicle: saline with Tween-80
[6] = dose: 240.0 mg/kg/injection, schedule: Q01DX005 (ip), vehicle: saline with Tween-80
[7] = dose: 50.0 mg/kg/injection, schedule: Q01DX005 (ip), vehicle: Klucel (hydroxypropylcellulose) (HPC)
[8] = dose: 100.0 mg/kg/injection, schedule: Q01DX005 (ip), vehicle: Klucel (hydroxypropylcellulose) (HPC)
[9] = dose: 200.0 mg/kg/injection, schedule: Q01DX005 (ip), vehicle: Klucel (hydroxypropylcellulose) (HPC)
[10] = dose: 50.0 mg/kg/injection, schedule: Q01DX005 (ip), vehicle: saline with Tween-80
[11] = dose: 100.0 mg/kg/injection, schedule: Q01DX005 (ip), vehicle: saline with Tween-80
[12] = dose: 100.0 mg/kg/injection, schedule: Q01DX009 (ip), vehicle: saline with Tween-80
[13] = dose: 400.0 mg/kg/injection, schedule: Q01DX009 (ip), vehicle: saline with Tween-80
[14] = dose: 50.0 mg/kg/injection, schedule: Q01DX009 (ip), vehicle: Klucel (hydroxypropylcellulose) (HPC)
[15] = dose: 100.0 mg/kg/injection, schedule: Q01DX009 (ip), vehicle: Klucel (hydroxypropylcellulose) (HPC)
[16] = dose: 50.0 mg/kg/injection, schedule: Q01DX009 (ip), vehicle: saline with Tween-80

Measured: T/C

Clc1cccc(Cl)c1C(Cl)Cl
inactive: [1] 95 % of control | [2] 109 % of control | [3] 100 % of control

CS(=O)CCN=Cc1ccc(N=Nc2ccc(O)cc2)cc1 (stereo not given)
inactive: [4] 103 % of control | [5] 103 % of control | [6] 97 % of control

O=c1[nH]c(=O)c2[nH]c(N=Nc3ccc(S(=O)(=O)O)cc3)nc2[nH]1
inactive: [7] 95 % of control | [8] 99 % of control | [9] 100 % of control

CN1C(=O)NC2(CCCCC2)C1=O
inactive: [7] 105 % of control | [8] 100 % of control | [9] 100 % of control

[NH-]C(CC(N)=O)C(=O)O.[NH-]C(CC(N)=O)C(=O)O.[Pd+2] (stereo not given)
inactive: dose: 6.25 mg/kg/injection, schedule: Q04DX003 (ip), vehicle: saline with Tween-80 92 % of control | dose: 12.5 mg/kg/injection, schedule: Q04DX003 (ip), vehicle: saline with Tween-80 96 % of control | dose: 25.0 mg/kg/injection, schedule: Q04DX003 (ip), vehicle: saline with Tween-80 100 % of control | dose: 50.0 mg/kg/injection, schedule: Q04DX003 (ip), vehicle: saline with Tween-80 98 % of control | [1] 107 % of control | [2] 100 % of control

N=c1ccn(O)cc1
inactive: dose: 6.25 mg/kg/injection, schedule: Q01DX005 (ip), vehicle: saline 101 % of control | dose: 12.5 mg/kg/injection, schedule: Q01DX005 (ip), vehicle: saline 107 % of control | dose: 12.5 mg/kg/injection, schedule: Q01DX009 (ip), vehicle: saline 111 % of control | dose: 25.0 mg/kg/injection, schedule: Q01DX005 (ip), vehicle: saline 102 % of control | dose: 25.0 mg/kg/injection, schedule: Q01DX009 (ip), vehicle: saline 111 % of control

CCCCCC[N+](C)([O-])CCCCCC[N+](C)([O-])CCCCCC (stereo not given)
inactive: dose: 50.0 mg/kg/injection, schedule: Q01DX009 (ip), vehicle: saline 107 % of control | dose: 100.0 mg/kg/injection, schedule: Q01DX009 (ip), vehicle: saline 101 % of control | dose: 200.0 mg/kg/injection, schedule: Q01DX009 (ip), vehicle: saline 97 % of control

CN(C)c1ccc(C(=C2C=CC(=[N+](C)C)C=C2)c2ccccc2Cl)cc1
inactive: dose: 1.56 mg/kg/injection, schedule: Q01DX005 (ip), vehicle: saline with Tween-80 117 % of control | dose: 3.13 mg/kg/injection, schedule: Q01DX005 (ip), vehicle: saline with Tween-80 117 % of control and 121 % of control | dose: 6.25 mg/kg/injection, schedule: Q01DX005 (ip), vehicle: saline with Tween-80 118 % of control (2×) and 121 % of control | dose: 12.5 mg/kg/injection, schedule: Q01DX005 (ip), vehicle: saline with Tween-80 112 % of control and 88 % of control

CCOC(=Nc1ccc([N+](=O)[O-])cc1)SC(c1ccccc1)(c1ccccc1)c1ccccc1
inactive: [10] 103 % of control | [11] 91 % of control | dose: 200.0 mg/kg/injection, schedule: Q01DX005 (ip), vehicle: saline with Tween-80 88 % of control

O=C(NC1CC1)C(Cl)Cl
inactive: [7] 103 % of control | [8] 99 % of control

CCOC(=O)CCC(C)(C#N)C(C#N)C(=O)OCC (stereo not given)
inactive: [12] 100 % of control | [1] 100 % of control | [2] 100 % of control | [13] 100 % of control | [3] 100 % of control

N#[N+]c1c(C(=O)O)[nH]c(=O)[nH]c1=O
inactive: dose: 16.0 mg/kg/injection, schedule: Q01DX009 (ip), vehicle: saline sonified 109 % of control | dose: 32.0 mg/kg/injection, schedule: Q01DX009 (ip), vehicle: saline sonified 104 % of control | dose: 64.0 mg/kg/injection, schedule: Q01DX009 (ip), vehicle: saline sonified 100 % of control | dose: 125.0 mg/kg/injection, schedule: Q01DX009 (ip), vehicle: saline sonified 104 % of control | dose: 250.0 mg/kg/injection, schedule: Q01DX009 (ip), vehicle: saline sonified 109 % of control | dose: 500.0 mg/kg/injection, schedule: Q01DX009 (ip), vehicle: saline sonified 104 % of control

O=C(OC(CCc1ccccc1)C(=O)O)c1ccc([N+](=O)[O-])cc1 (stereo not given)
inactive: dose: 75.0 mg/kg/injection, schedule: Q01DX001 (ip), vehicle: Klucel (hydroxypropylcellulose) (HPC) 111 % of control | dose: 150.0 mg/kg/injection, schedule: Q01DX001 (ip), vehicle: Klucel (hydroxypropylcellulose) (HPC) 112 % of control | dose: 300.0 mg/kg/injection, schedule: Q01DX001 (ip), vehicle: Klucel (hydroxypropylcellulose) (HPC) 97 % of control

CCOC(=O)CN1CCC(C(=O)OC)CC1
inactive: dose: 100.0 mg/kg/injection, schedule: Q04DX003 (ip), vehicle: saline 100 % of control | dose: 200.0 mg/kg/injection, schedule: Q04DX003 (ip), vehicle: saline 100 % of control | dose: 400.0 mg/kg/injection, schedule: Q04DX003 (ip), vehicle: saline 100 % of control

CCCCCC(=O)C(CCCC)(c1nc2n(c1O)C(=N)N=N2)c1nc2n(c1O)C(=N)N=N2 (stereo not given)
inactive: [10] 107 % of control | [11] 93 % of control

CCCCCCC(/C=C/c1ccc(Cl)cc1)=N\O
inactive: dose: 25.0 mg/kg/injection, schedule: Q01DX009 (ip), vehicle: Klucel (hydroxypropylcellulose) (HPC) 106 % of control | [14] 104 % of control | [15] 100 % of control and 108 % of control

C=CCSC(=S)Nc1nc2ccc(C)cc2s1
inactive: dose: 100.0 mg/kg/injection, schedule: Q04DX003 (ip), vehicle: Klucel (hydroxypropylcellulose) (HPC) 96 % of control | dose: 200.0 mg/kg/injection, schedule: Q04DX003 (ip), vehicle: Klucel (hydroxypropylcellulose) (HPC) 98 % of control | dose: 400.0 mg/kg/injection, schedule: Q04DX003 (ip), vehicle: Klucel (hydroxypropylcellulose) (HPC) 97 % of control

c1ccc2c(c1)cc1c3nncn3ncn21
inactive: dose: 12.5 mg/kg/injection, schedule: Q01DX009 (ip), vehicle: saline with Tween-80 100 % of control | dose: 25.0 mg/kg/injection, schedule: Q01DX009 (ip), vehicle: saline with Tween-80 92 % of control | [16] 93 % of control

CC(=O)OC1/C=C\CC/C=C\C1 (stereo not given)
inactive: [4] 99 % of control | [5] 102 % of control | [6] 103 % of control

Nc1c(OS(=O)(=O)c2ccccc2)cccc1OS(=O)(=O)c1ccccc1
inactive: [16] 91 % of control | [12] 90 % of control

O=C(Nc1ccc(C2=NCCCN2)cc1)c1ccc(NC(=O)c2ccc(C3=NCCCN3)cc2)cc1
inactive: dose: 375.0 micrograms/kg/injection, schedule: Q04DX003 (ip), vehicle: saline 109 % of control | dose: 750.0 micrograms/kg/injection, schedule: Q04DX003 (ip), vehicle: saline 100 % of control | dose: 1500.0 micrograms/kg/injection, schedule: Q04DX003 (ip), vehicle: saline 109 % of control
active: dose: 5.0 mg/kg/injection, schedule: Q01DX009 (ip), vehicle: saline 200 % of control | dose: 10.0 mg/kg/injection, schedule: Q01DX009 (ip), vehicle: saline 250 % of control | dose: 12.5 mg/kg/injection, schedule: Q04DX003 (ip), vehicle: saline 160 % of control | dose: 20.0 mg/kg/injection, schedule: Q04DX003 (ip), vehicle: saline with Tween-80 186 % of control

O=C1NC(=O)C2(CCCC2)c2ccncc21
inactive: dose: 6.25 mg/kg/injection, schedule: Q04DX002 (ip), vehicle: saline with Tween-80 96 % of control | dose: 12.5 mg/kg/injection, schedule: Q04DX002 (ip), vehicle: saline with Tween-80 96 % of control

ClCc1nnc(-c2ccccc2)o1
inactive: [14] 100 % of control | [15] 95 % of control

CC(=O)[C@H]1CC[C@H]2[C@@H]3C[C@H](F)C4=CC(=O)CC[C@]4(C)[C@H]3C(=O)C[C@]12C
inactive: [12] 100 % of control | dose: 200.0 mg/kg/injection, schedule: Q01DX009 (ip), vehicle: saline with Tween-80 100 % of control | [13] 100 % of control

C/C(=C\COc1ccc2ccc(=O)oc2c1)C1=CC(=O)C(C)(C)O1
inactive: dose: 266.0 mg/kg/injection, schedule: Q01DX009 (ip), vehicle: saline with Tween-80 115 % of control | [13] 114 % of control | dose: 600.0 mg/kg/injection, schedule: Q01DX009 (ip), vehicle: saline with Tween-80 123 % of control
